Patent US20240424134A1, “PEPTIDE HAVING INDEPENDENTLY STABILIZED HYDROPHOBIC ALPHA HELIX, PEPTIDE COMPLEX COMPRISING SAME AND USES THEREOF” (UIF (University Industry Foundation), Yonsei University, priority 2022, published 2024)
“Also recorded” adds a separate entry of the source. Non-standard residues stand in square brackets, D forms with d. Primed or numbered codes have the meaning given here. No end group written: not given here. PEG8′ = not defined here; Aib = CC(C)(N)C(=O)O

Experiments:
[1] = CD (circular dichroism) spectroscopy of α-helix structure; type: physicochemical; details: for θ222 nm/θ208 nm ratio: Table 11, peptide complexes of Examples 37-97
Protocol: To evaluate the structures of a linear plasmid DNA and peptides, CD spectra were analyzed using a Chirascan CD spectrometer (Applied Photophysics, UK). […] The final concentration of the linear plasmid DNA was 30 ng/μL. All the samples were dissolved in H2O. For the formation of the artificial chromosome, a mixture of the peptide and the DNA was incubated for 12 days or longer. Scanning was performed using a 2-mm path-length cuvette. Each scan was repeated three times and averaged. MRE (mean residue ellipticity) was calculated based on the number of amino acid residues.
CD (circular dichroism) spectroscopy was performed as follows.
The CD spectra were analyzed using a Chirascan CD spectrometer (Applied Photophysics, UK). […] All the samples were dissolved in H2O. Each scan was repeated three times using a 2-mm path-length cuvette and averaged. MRE (mean residue ellipticity) was calculated based on the number of amino acid residues.

[2] = AFM analysis of self-assembled peptide complexes; type: physicochemical; details: for AFM morphology / Average diameter (nm): Table 12, self-assembled structure; for AFM morphology: 25 μM in distilled water
Protocol: AFM was performed using an NX10 system (Park Systems, Korea) in a non-contact mode with PPP-NCHR AFM probes (Nanosensors, Switzerland). The DNA concentration ranged from 1 to 30 ng/μL and the peptide concentration ranged from 1 to 32 μM (in H2O). 2 μL of the sample solution was cast onto a freshly cleaved mica surface and dried. The data obtained by the SmartScan program (Park Systems, Korea) was analyzed using the XEI program (Park Systems, Korea).
The CD spectroscopy was performed in the same manner as in Test Example 2 and the AFM was performed using the NX10 system (Park Systems, Korea) in a non-contact mode with PPP-NCHR AFM probes (Nanosensors, Switzerland). The peptide complex concentration ranged from 1 to 32 μM (in H2O). 2 μL of the sample solution was cast onto a freshly cleaved mica surface and dried. The data obtained by the SmartScan program (Park Systems, Korea) were analyzed using the XEI program (Park Systems, Korea).
The peptide complexes of Examples 37-40 were imaged by AFM. 25 μM of the peptide complex was dissolved in distilled water, sonicated for 5 minutes, incubated overnight and dropped on mica for measurement.

[3] = Table 13, cyclic peptide complexes

Substance	θ222 nm/θ208 nm ratio [1]	AFM morphology [2]	Average diameter (nm) [2]	other results
(PEG8)2 AUAUAUAUA [Example 55]	0.58	Not assembled	–	–
(PEG8)2 AUAUAUAUAUAUAUA [Example 56]	1.11	Micelle	20-40 nm	–
(PEG8)2 AUAUAUAUAUAUAUAUAUAUA [Example 57]	1.22	Vesicle	30-80 nm	–
(PEG8)2AUAUAUAUAUAUAUAUAUAUA(PEG8)2 [Example 125]	–	–	–	[θ]222/[θ]208 ([1]; Table 14, coil-rod-coil peptide complexes): 1.21; [θ]222/[θ]203 ratio ([1]; depending on concentration): 1.1-1.2; self-assembly behavior in an aqueous solvent ([2]; AFM): did not self-assemble
AUAUAUAUA(PEG8)2 [Example 52]	0.54	Not assembled	–	–
AUAUAUAUAUAUAUA(PEG8)2 [Example 53]	1.11	Micelle	20-30 nm	–
AUAUAUAUAUAUAUAUAUAUA(PEG8)2 [Example 54]	1.2	Micelle, vesicle	20-90 nm	–
EAUAUAUAUAUAUAUAUAUAUA(PEG8)2 [Example 90]	1.21	Micelle	20-30 nm	–
EAUAUAUAUAUAUAUAUAUAUAGSGSGSGS (EA[Aib]A[Aib]A[Aib]A[Aib]A[Aib]A[Aib]A[Aib]A[Aib]A[Aib]A[Aib]AGSGSGSGS) [Example 95]	1.2	Vesicle	240-280 nm	–
EEAUAUAUAUAUAUAUAUAUAUA(PEG8)2 [Example 91]	1.18	Micelle	20-30 nm	–
EEEAUAUAUAUAUAUAUAUAUAUA(PEG8)2 [Example 92]	1.2	Vesicle	200 nm	–
EEEEAUAUAUAUAUAUAUAUAUAUA(PEG8)2 (EEEEAXAXAXAXAXAXAXAXAXAXA; (PEG8)2 C-terminal; SITE 6 2-aminoisobutyric acid; SITE 8 2-aminoisobutyric acid; SITE 10 2-aminoisobutyric acid; SITE 12 2-aminoisobutyric acid; SITE 14 2-aminoisobutyric acid; SITE 16 2-aminoisobutyric acid; SITE 20 2-aminoisobutyric acid; SITE 18 2-aminoisobutyric acid; SITE 22 2-aminoisobutyric acid; SITE 24 2-aminoisobutyric acid) [Example 93]	1.16	Vesicle	180-360 nm	–
Example 37: peptide complex (Wαm-RGD), SEQ ID NO 37 (A[Aib]A[Aib]A[Aib]A[Aib]AGRGDRGDG)	0.28	Irregular vesicle	–	–
Example 38: peptide complex (Wαm-RGD), SEQ ID NO 38 (L[Aib]L[Aib]L[Aib]L[Aib]LGRGDRGDG)	0.44	Vesicle	50-200 nm	self-assembly behavior in an aqueous solvent ([2]; AFM): spherical particles
Example 39: peptide complex (Wαm-RGD), SEQ ID NO 39 (A[Aib]A[Aib]A[Aib]A[Aib]A[Aib]A[Aib]A[Aib]AGRGDRGDG)	0.7	Micelle	20 nm	average diameter ([2]; AFM): 20 nm; self-assembly behavior in an aqueous solvent ([2]; AFM): self-assembled into spherical particles such as micelles; also recorded: micelle particles; average height ([2]; AFM, FIG. 80): 2-4 nm; length of micelle particles ([2]; AFM, FIG. 80): 6-10 nm
Example 40: peptide complex (Wαm-RGD), SEQ ID NO 40 (AXAXAXAXAXAXAXAXAXAXAGRGDRGDG; RGD peptides; SITE 2 2-aminoisobutyric acid; SITE 4 2-aminoisobutyric acid; SITE 6 2-aminoisobutyric acid; SITE 8 2-aminoisobutyric acid; SITE 10 2-aminoisobutyric acid; SITE 12 2-aminoisobutyric acid; SITE 14 2-aminoisobutyric acid; SITE 16 2-aminoisobutyric acid; SITE 18 2-aminoisobutyric acid; SITE 20 2-aminoisobutyric acid)	0.99	Micelle	20-30 nm	α-helix structure (in words) ([1]; from CD spectra): most perfect α-helix structure; average diameter ([2]; AFM): 20 nm; self-assembly behavior in an aqueous solvent ([2]; AFM): self-assembled into spherical particles such as micelles; also recorded: micelle particles; length of micelle particles ([2]; AFM, FIG. 80): 7.2-12.4 nm
Example 41: peptide complex (Wαm-RGD, Wαm-GS), SEQ ID NO 41 (A[Aib]A[Aib]A[Aib]A[Aib]A[Aib]A[Aib]A[Aib]A[Aib]A[Aib]A[Aib]AGRGDRGDRGDG)	0.91	Micelle	20-40 nm	–

Substance	θ222 nm/θ208 nm ratio [1]	AFM morphology [2]	Average diameter (nm) [2]	other results
RAUAUAUAUA(PEG8)2 (RA[Aib]A[Aib]A[Aib]A[Aib]A-{PEG8′-PEG8′-NH2}) [Example 58]	0.36	Not assembled	–	–
RAUAUAUAUAUAUAUA(PEG8)2 [Example 59]	0.77	Vesicle	160-410 nm	–
RAUAUAUAUAUAUAUAUAUAUAGRGDRGDRGDG [Example 66]	0.91	Micelle	20-30 nm	–
RAUAUAUAUAUAUAUAUAUAUARGDRGDRGD [Example 64]	1.1	Micelle	30-40 nm	–
RAUAUAUAUAUAUAUAUAUAUARGDRGDRGDRGD [Example 65]	0.94	Micelle	20 nm	–
RGDRGDAUAUAUAUAUAUAUAUAUAUAR [Example 70]	1.14	Vesicle	50 nm	–
RGDRGDRGDAUAUAUAUAUAUAUAUAUAUAR [Example 71]	1.12	Vesicle	50-100 nm	–
RRAUAUAUAUAUAUAUAUAUAUA(PEG8)2 [Example 61]	1.13	Vesicle	90-250 nm	–
RRAUAUAUAUAUAUAUAUAUAUAGRGDRGDRGDG (RRA[Aib]A[Aib]A[Aib]A[Aib]A[Aib]A[Aib]A[Aib]A[Aib]A[Aib]A[Aib]AGRGDRGDRGDG) [Example 68]	0.89	Vesicle	40-110 nm	–
WAUAUAUAUAUAUAUAUAU(PEG2)5 [Example 103]	–	–	–	[θ]222/[θ]208 [1, 3]: 1.21
WAUAUAUAUAUAUAUAUAUGHHHHHHHHHHGRGDRGDRGDG [Example 109]	–	–	–	[θ]222/[θ]208 [1, 3]: 0.89
WAUAUAUAUAUAUAUAUGHHHHHHHHHHGRGDRGDRGDG [Example 108]	–	–	–	[θ]222/[θ]208 [1, 3]: 0.83
WAUAUAUAUAUAUAUGHHHHHHHHHHGRGDRGDRGDG [Example 107]	–	–	–	[θ]222/[θ]208 [1, 3]: 0.71
WAUAUAUAUAUAUGHHHHHHHHHHGRGDRGDRGDG [Example 106]	–	–	–	[θ]222/[θ]208 [1, 3]: 0.65
WAUAUAUAUAUGHHHHHHHHHHGRGDRGDRGDG [Example 105]	–	–	–	[θ]222/[θ]208 [1, 3]: 0.38
WAUAUAUAUGHHHHHHHHHHGRGDRGDRGDG [Example 104]	–	–	–	[θ]222/[θ]208 [1, 3]: 0.2
